The text below walks through data of paper PMC3454376, “Salidroside Improves Behavioral and Histological Outcomes and Reduces Apoptosis via PI3K/Akt Signaling after Experimental Traumatic Brain Injury” (PLoS ONE, 2012).

One series relates to cytosolic CytoC. In words: Western blot, cytosolic fraction of injured cortex. The format is in vivo, mice. Conditions: 20 mg/kg ip 10 min after CCI. As for the experimental part: (§1) Three sets of experiments were performed. The first set was to investigate the protective effects of salidroside. All animals were randomized into 1 of 3 groups (sham injury, CCI + vehicle, CCI + SALD 20). Surgery/injury, behavioral testing, and tissue analyses were performed by different individuals. Behavioral testing and tissue analyses were performed by individuals blinded to the treatment group. Salidroside (Cayman Chemical, Ann Arbor, MI, USA) dissolved in normal saline (0.25 mL) or a corresponding volume of vehicle (saline) was administered intraperitoneally 10 min following injury. Testing after injury was completed as follows: 1) behavioral testing at days 1, 4, 7, 14, 21, and 28 (n = 8–10 mice/group); 2) cresyl violet staining at day 28 (n = 9 mice/group); 3) histology, determination of brain water content, and western blot analysis at day 1 or 3 (n = 5–6 mice/group). To determine the optimal dose of salidroside, a pilot study was performed using 2 different doses (20 and 50 mg/kg) administered 10 min after injury, and neurological deficits and tissue damage were evaluated as the main outcomes. […] The second set of experiment was to assess the effect of the inhibition of PI3K/Akt with the specific PI3K inhibitor, LY294002 (Cell Signaling Technology, Danvers, MA, USA), on salidroside effects. Animals were randomized into 4 groups. Mice received either: 1) icv pretreatment of LY294002 followed by SALD 20 after CCI (S20Y group); or 2) icv pretreatment of saline (vehicle control) followed by SALD 20 after CCI (S20V group). 3) Mice were infused icv with saline and were subjected to sham injury. 4) Mice were infused icv with LY294002 and were subjected to sham injury. Testing after injury was completed as follows: 1) cresyl violet staining at day 28 (n = 6 mice/group); 2) western blot analysis at day 1 (n = 6 mice/group). The third set of experiment was performed to examine the neuroprotective time window afforded by salidroside. Mice received intraperitoneal SALD 20 or vehicle (saline) at 3 or 6 h following CCI and were sacrificed 1 day later for FJB staining and western blot analysis (n = 6 mice/group). Brains of injured or sham animals were collected 1 day and 3 days post CCI or sham surgery, and a 4 mm coronal section from the injured area over the parietal cortex and ipsilateral hippocampus were collected. […] Protein concentration was determined by Bradford reagent spectrophotometrically at A595. […] The relative intensity of protein signals was normalized to the corresponding β-actin intensity and was quantified by densitometric analysis with the use of Image J software. […]

For the next series, the system named is cytosolic Smac/DIABLO. The series can be described thus: Western blot, cytosolic fraction of injured cortex. The format is in vivo, mice. Conditions: 20 mg/kg ip 10 min after CCI, P<0.05. As for the experimental part:
as §1
In general terms: Immunoblotting shows a protein as a band on a membrane.

Another series is described as follows: Body weight after CCI. The series is classed as in vivo, mice. Conditions: P>0.05.
Details of series [1]: method as in PMID 17631426. Conditions: rats, cited from earlier work.

Like-named read-outs stand apart in the source and are kept apart here.

Consider `OC[C@H]1O[C@@H](OCCc2ccc(O)cc2)[C@H](O)[C@@H](O)[C@@H]1O` [SALD, salidroside], for which the “cytosolic CytoC level compared to vehicle-treated injured brains” value with cytosolic CytoC (day 1, P<0.01) is reported as 60.6%; in the series on cytosolic CytoC (day 3, P<0.05), 54.7%. Besides, the figures for the “cytosolic Smac/DIABLO level compared to vehicle-treated injured brains” value in the series with cytosolic Smac/DIABLO (day 1) and in the series with cytosolic Smac/DIABLO (day 3) were 45.1% and 58.1%, respectively. Further, the “body weight versus vehicle” value in “Body weight after CCI” (20 mg/kg ip after CCI) and in the series “Body weight after CCI” (50 mg/kg ip after CCI) was “No significant difference” throughout. For the same compound, the “mean elimination half-life (t1/2)” value is “around 0.5 h” in series [1] (intravenous administration) and roughly 1.1 h in series [1] (oral administration).
